The nature of the series: 4-MU partitioning assay (forward and backward extraction) with cyclodextrins. Type of series: physicochemical. Conditions: for aqueous containment of 4-MU: independent of pH. The procedure: The assay format includes forward transfer partitioning (forward extraction; FE) of 4-MU from an aqueous phase to an oil phase and backward transfer partitioning (backward extraction; BE) of 4-MU from an oil phase to an aqueous phase. The assay is performed in 96-well microtiter substrates; clear 96-well substrates (e.g., Costar 3631) for evaluation of forward transfer partitioning with bottom probe fluorescence detection and solid black 96-well substrates (e.g., Costar 3915) for evaluation of backward transfer partitioning with top probe fluorescence detection. A BioTek Synergy HT instrument with 3 mm top probe and 5 mm bottom probe, may, for example, be used for fluorescence measurements. In one example, parameters that may be varied in the assay for evaluation of cyclodextrins in aqueous containment of 4-MU include, but are not limited to, ionic strength of the aqueous phase solution, pH of the aqueous phase solution (e.g., pH 2 or pH 5), and the molar ratio of cyclodextrins to 4-MU.
An example of an assay format used for testing the effect of cyclodextrins on contamination through 4-MU partitioning includes, but is not limited to, the following steps: Pipette an aliquot (20 μL) of an aqueous phase solution (e.g., at pH 2, pH5 or pH 10.5) containing a surfactant, such as 0.01% Tween® 20 in a well of a 96-well clear microtiter plate. […] Measure the fluorescence of each well using a bottom probe at gains 40, 45, and 50. […] Remove the aluminum foil and measure the fluorescence of each well using a top probe at gains 50, 60, 70, and 80. […]
Each well of the second microtiter plate (i.e., a solid black microtiter plate) contains 50 μL of an aqueous solution (200 mM NaHCO3) at pH 10.5. […] For fluorescence calibration, an aqueous solution containing 4-MU (0, 0.01, 0.1, or 1 μM) was added to the corresponding “empty” wells of Table 5 and overlaid with a 50 μL aliquot of fresh oil.
FIGS. 17A and 17B show data tables 1700 and 1750, respectively, of fluorescence readings for forward transfer and backward transfer, respectively, of the 4-MU partitioning assay of Tables 5 and 6. […]

As to hydroxypropyl-β-cyclodextrin, the “aqueous containment of 4-MU” value is “effective”. Consider methyl-β-cyclodextrin, for which the “aqueous containment of 4-MU” value was “effective”. Also, the “contamination signal (back extraction)” value (molar ratio of Me-bCD to 4-MU 200:1, FIG. 16D) was “lowest contamination signal”.

The values are drawn from patent publication US8394641B2, “Method of hydrolyzing an enzymatic substrate” (Advanced Liquid Logic Inc., priority 2009, dated 2013).
